Data from patent US5585376A, “1,5-benzodiazepine derivatives having CCK and/or gastrin antagonistic activity” (Glaxo Wellcome Inc., priority 1993, dated 1996).

Legend:
[1] = target: T1, human CCK-B receptor (Homo sapiens, UniProt P32239); assay: CCK-B receptor binding, transfected HeLa cell membranes, [125I]BH-sCCK-8; details: HeLa cell membranes stably transfected with human CCK-B receptor; 30 pM [125I]BH-sCCK-8
T1 construct: expressed in transfected cells; host or cells: HeLa cells (membranes), stably transfected
T1 sequence (P32239 1-447): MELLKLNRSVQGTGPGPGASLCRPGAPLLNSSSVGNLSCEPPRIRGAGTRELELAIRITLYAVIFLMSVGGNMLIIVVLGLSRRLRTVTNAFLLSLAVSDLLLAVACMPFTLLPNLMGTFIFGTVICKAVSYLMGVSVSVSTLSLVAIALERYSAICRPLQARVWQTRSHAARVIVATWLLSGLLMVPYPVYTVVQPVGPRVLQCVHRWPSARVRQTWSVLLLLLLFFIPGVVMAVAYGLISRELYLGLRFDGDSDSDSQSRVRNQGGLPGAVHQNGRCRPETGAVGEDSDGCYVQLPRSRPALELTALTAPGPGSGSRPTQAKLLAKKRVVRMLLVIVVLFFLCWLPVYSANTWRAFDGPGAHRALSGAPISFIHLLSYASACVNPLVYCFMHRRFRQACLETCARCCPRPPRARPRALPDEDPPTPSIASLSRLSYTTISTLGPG
Method: Alternatively the binding affinity of compounds of the invention for CCK-A and CCK-B receptors may be determined using HeLa cell membranes that are transfected with the human CCK-B receptor or, COS-M6 cell membranes that are transiently transfected with the human CCK-A receptor.
CCK-B receptor binding studies were carried out using HeLa cell membranes which had been stabily transfected with the human CCK-B receptor cloned from temporal cortex cDNA library.
The transfected HeLa cell membranes were incubated with 30 pM [^125 ]BH-sCCK-8 in the presence of various concentrations of the test compound (1 pM to 1 μM). All experiments were performed in an assay volume of 250 μl. Membranes were harvested onto GF/C glass fibre filter paper (Whatman, UK) by rapid filtration using a Cell Harvester (Brandel model M-24R) and washed three times with HEPES Wash buffer chilled to 4° C. The radioactivity trapped on individual filter discs was counted over 60 seconds using a gamma counter (Mini Gamma counter, LKB, Wallac, Finland) at a counting efficiency of 77%. A control experiment was also carded out in the absence of a test compound.
Analysis of the data was performed by computer-assisted non-linear regression (ALLFIT programmes DeLean et al., 1978;). IC50 values for the test compounds were convened to Ki values using the Cheng & Prussof equation (Ki =IC50 /(1+[L]/KD)) (Cheng and Prussof, 1973).

[2] = system: gastric acid secretion; assay: gastric acid secretion in the gastrin fistula rat; assay type: in vivo; details: 0.3 and 1 mg/kg iv
Source text: (§1) The compounds of the invention are essential non-toxic a theraapeutically active doses.

[3] = untoward effects in the gastrin fistula rat; assay type: in vivo; details: 0.3 and 1 mg/kg iv
Source text: as §1

Compound	Ki [1] [nM]	untoward effects [3]	gastric acid secretion [2]
O=C(Nc1ccc(F)cc1)NC1C(=O)N(CC(=O)N2CCCC2)c2ccccc2N(C2CCCCC2)C1=O (single isomer, unassigned) [Example 1 (isomer 1), 1-[1-Cyclohexyl-2,4-dioxo-5-(2-oxo-2-pyrrolidin-1-yl-ethyl)-2,3,4,5-tetrahydro-1H-benzo[b][1.4]diazepin-3-yl]-3-(4-fluoro-phenyl)urea]	3.16	no untoward effects were observed	significally inhibited
O=C(O)Cc1cccc(NC(=O)NC2C(=O)N(CC(=O)N3CCCC3)c3ccccc3N(c3ccccc3F)C2=O)c1 (stereo not drawn) [Example 3, (3-{3-[1-(2-Fluoro-phenyl)-2,4-dioxo-5-(2-oxo-2-pyrrolidin-1-yl-ethyl)-2,3,4,5-tetrahydro-1H-benzo[b][1,4]diazepin-3-yl]-ureido}-phenyl)-acetic acid]	3.98		
CC1(C)CCCN(C(=O)CN2C(=O)C(NC(=O)Nc3cccc(C(=O)O)c3)C(=O)N(c3ccccc3F)c3ccccc32)C1 (stereo not drawn) [Example 4, 3-{3-[1-[2-(3,3-Dimethyl-piperidin-1-yl)-2-oxo-ethyl]-5-(2-fluoro-phenyl)-2,4-dioxo-2,3,4,5-tetrahydro-1H-benzo[b][1,4]diazepin-3-yl]-ureido}-benzoic acid]	1.58		
O=C(Nc1ccccc1)NC1C(=O)N(CC(=O)N2CCCC2)c2ccccc2N(C2CCCCC2)C1=O (stereo not drawn) [Example 10]	3.98		
O=C(Nc1cccc(-c2nn[nH]n2)c1)NC1C(=O)N(CC(=O)N2CCCC2)c2ccccc2N(c2ccccc2)C1=O (stereo not drawn) [Example 14]	3.16		
Cc1cccc(NC(=O)NC2C(=O)N(CC(=O)N3CCCC3)c3ccccc3N(c3ccccc3)C2=O)c1 (stereo not drawn) [Example 15]	1.58		
CC1(C)CCCN(C(=O)CN2C(=O)C(NC(=O)Nc3ccc(F)cc3)C(=O)N(c3ccccc3F)c3ccccc32)C1 (stereo not drawn) [Example 20]	2		

More lines, main results first:

Ki [1] [nM]	untoward effects [3]	Compound	gastric acid secretion [2]
7.94		O=C(Nc1ccc(F)cc1)NC1C(=O)N(CC(=O)N2CCCC2)c2ccccc2N(C2CCCCC2)C1=O (single isomer, unassigned) [1 (isomer 2), 1-[1-Cyclohexyl-2,4-dioxo-5-(2-oxo-2-pyrrolidin-1-yl-ethyl)-2,3,4,5-tetrahydro-1H-benzo[b][1.4]diazepin-3-yl]-3-(4-fluoro-phenyl)urea]	
3.16		O=C(Nc1ccc(F)cc1)NC1C(=O)N(CC(=O)N2CCCC2)c2ccccc2N(C2CCCCC2)C1=O (stereo not drawn) [Example 1, 1-[1-Cyclohexyl-2,4-dioxo-5-(2-oxo-2-pyrrolidin-1-yl-ethyl)-2,3,4,5-tetrahydro-1H-benzo[b][1.4]diazepin-3-yl]-3-(4-fluoro-phenyl)urea]	
2		O=C(Nc1cccc(C(=O)O)c1)NC1C(=O)N(CC(=O)N2CCCC2)c2ccccc2N(C2CCCCC2)C1=O (stereo not drawn) [Example 2, 3-{3-[1-Cyclohexyl-2,4-dioxo-5-(2-oxo-2-pyrrolidin-1-yl-ethyl)-2,3,4,5-tetrahydro-1H-benzo[b][1.4]diazepin-3-yl]-ureido}-benzoic acid]	
5.01		O=C(Nc1cccc(F)c1)NC1C(=O)N(CC(=O)N2CCCC2)c2ccccc2N(C2CCCCC2)C1=O (stereo not drawn) [Example 7]	
2.51		O=C(Nc1cccc([N+](=O)[O-])c1)NC1C(=O)N(CC(=O)N2CCCC2)c2ccccc2N(C2CCCCC2)C1=O (stereo not drawn) [Example 8]	
1		CN(C)c1cccc(NC(=O)NC2C(=O)N(CC(=O)N3CCCC3)c3ccccc3N(C3CCCCC3)C2=O)c1 (stereo not drawn) [Example 12]	
